{"source": "ChEMBL document CHEMBL1201862", "about": "“PubChem BioAssay data set” (2004)", "assay_in_all_cases": "NCI-60 cell line screen, 48 h", "key": {"MCF7": {"test_system": "MCF7"}, "OVCAR-3": {"test_system": "OVCAR-3"}, "A498": {"test_system": "A498"}, "IGROV-1": {"test_system": "IGROV-1"}, "MOLT-4": {"test_system": "MOLT-4"}, "SN12C": {"test_system": "SN12C"}, "NCI-H522": {"test_system": "NCI-H522"}, "HCC 2998": {"test_system": "HCC 2998"}, "OVCAR-4": {"test_system": "OVCAR-4"}, "EKVX": {"test_system": "EKVX"}, "NCI-H23": {"test_system": "NCI-H23"}, "SNB-19": {"test_system": "SNB-19"}, "NCI/ADR-RES": {"test_system": "NCI/ADR-RES"}, "UACC-257": {"test_system": "UACC-257"}, "U-251": {"test_system": "U-251"}, "HOP-92": {"test_system": "HOP-92"}, "LOX IMVI": {"test_system": "LOX IMVI"}, "HCT-116": {"test_system": "HCT-116"}, "KM12": {"test_system": "KM12"}, "UO-31": {"test_system": "UO-31"}, "HCT-15": {"test_system": "HCT-15"}, "OVCAR-5": {"test_system": "OVCAR-5"}, "SK-MEL-5": {"test_system": "SK-MEL-5"}, "RXF 393": {"test_system": "RXF 393"}, "SR": {"test_system": "SR"}, "DU-145": {"test_system": "DU-145"}, "PC-3": {"test_system": "PC-3"}, "MDA-MB-435": {"test_system": "MDA-MB-435"}, "MDA-N": {"test_system": "MDA-N"}, "K562": {"test_system": "K562"}, "SK-OV-3": {"test_system": "SK-OV-3"}, "NCI-H226": {"test_system": "NCI-H226"}, "CAKI-1": {"test_system": "CAKI-1"}, "TK-10": {"test_system": "TK-10"}, "SF-295": {"test_system": "SF-295"}, "RPMI-8226": {"test_system": "RPMI-8226"}, "SF-268": {"test_system": "SF-268"}, "Hs-578T": {"test_system": "Hs-578T"}, "SK-MEL-2": {"test_system": "SK-MEL-2"}, "M14": {"test_system": "M14"}, "786-0": {"test_system": "786-0"}, "COLO 205": {"test_system": "COLO 205"}, "SK-MEL-28": {"test_system": "SK-MEL-28"}, "SW-620": {"test_system": "SW-620"}, "HOP-62": {"test_system": "HOP-62"}, "ACHN": {"test_system": "ACHN"}, "NCI-H460": {"test_system": "NCI-H460"}, "A549": {"test_system": "A549"}, "MDA-MB-231": {"test_system": "MDA-MB-231"}, "UACC-62": {"test_system": "UACC-62"}}, "note": "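Values below derive from 48-hour exposures of cells grown in 96-well plates, with endpoints linearly interpolated between the two concentrations bracketing the appropriate inhibition level. GI50 marks 50% less growth.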 The source made the active and inactive calls. Cut-off read from the data, not from the text of the source: active = GI50 up to about 1.1 µM and inactive = higher.", "data": [{"compound": "Cc1cn(CCCCC2=NCCCN2)c(=O)[nH]c1=O", "values": [{"measurement": "GI50", "setting": "MCF7", "value": "> 26.3 µM (inactive)"}, {"measurement": "GI50", "setting": "OVCAR-3", "value": "> 26.7 µM (inactive)"}, {"measurement": "GI50", "setting": "A498", "value": "> 31.8 µM (inactive)"}, {"measurement": "GI50", "setting": "IGROV-1", "value": "> 26.5 µM (inactive)"}, {"measurement": "GI50", "setting": "MOLT-4", "value": "> 26.7 µM (inactive)"}, {"measurement": "GI50", "setting": "SN12C", "value": "> 100 µM (inactive)"}, {"measurement": "GI50", "setting": "NCI-H522", "value": "> 30.8 µM (inactive)"}, {"measurement": "GI50", "setting": "HCC 2998", "value": "> 26.3 µM (inactive)"}, {"measurement": "GI50", "setting": "OVCAR-4", "value": "> 29.5 µM (inactive)"}, {"measurement": "GI50", "setting": "EKVX", "value": "> 29.9 µM (inactive)"}, {"measurement": "GI50", "setting": "NCI-H23", "value": "> 31.2 µM (inactive)"}, {"measurement": "GI50", "setting": "SNB-19", "value": "> 52.8 µM (inactive)"}, {"measurement": "GI50", "setting": "NCI/ADR-RES", "value": "> 34.8 µM (inactive)"}, {"measurement": "GI50", "setting": "UACC-257", "value": "> 26.2 µM (inactive)"}, {"measurement": "GI50", "setting": "U-251", "value": "> 30.5 µM (inactive)"}, {"measurement": "GI50", "setting": "HOP-92", "value": "3.66 µM (inactive)"}, {"measurement": "GI50", "setting": "LOX IMVI", "value": "> 25.6 µM (inactive)"}, {"measurement": "GI50", "setting": "HCT-116", "value": "> 23.3 µM (inactive)"}, {"measurement": "GI50", "setting": "KM12", "value": "> 31.3 µM (inactive)"}, {"measurement": "GI50", "setting": "UO-31", "value": "> 24.8 µM (inactive)"}, {"measurement": "GI50", "setting": "HCT-15", "value": "> 32.2", "unit": "µM"}, {"measurement": "GI50", "setting": "OVCAR-5", "value": "> 30.3 µM (inactive)"}, {"measurement": "GI50", "setting": "SK-MEL-5", "value": "> 28.1 µM (inactive)"}, {"measurement": "GI50", "setting": "RXF 393", "value": "25.8 µM (inactive)"}, {"measurement": "GI50", "setting": "SR", "value": "> 28.9 µM (inactive)"}, {"measurement": "GI50", "setting": "DU-145", "value": "> 26.6 µM (inactive)"}, {"measurement": "GI50", "setting": "PC-3", "value": "> 26.7 µM (inactive)"}, {"measurement": "GI50", "setting": "MDA-MB-435", "value": "> 26.7 µM (inactive)"}, {"measurement": "GI50", "setting": "MDA-N", "value": "> 100 µM (inactive)"}, {"measurement": "GI50", "setting": "K562", "value": "> 24.6 µM (inactive)"}, {"measurement": "GI50", "setting": "SK-OV-3", "value": "> 29.6 µM (inactive)"}, {"measurement": "GI50", "setting": "NCI-H226", "value": "> 57.7 µM (inactive)"}, {"measurement": "GI50", "setting": "CAKI-1", "value": "> 15.1 µM (inactive)"}, {"measurement": "GI50", "setting": "TK-10", "value": "9.18 µM (inactive)"}, {"measurement": "GI50", "setting": "SF-295", "value": "46.5 µM (inactive)"}, {"measurement": "GI50", "setting": "RPMI-8226", "value": "> 100 µM (inactive)"}, {"measurement": "GI50", "setting": "SF-268", "value": "1.34 µM (inactive)"}, {"measurement": "GI50", "setting": "Hs-578T", "value": "> 34.4 µM (inactive)"}, {"measurement": "GI50", "setting": "SK-MEL-2", "value": "> 26.9 µM (inactive)"}, {"measurement": "GI50", "setting": "M14", "value": "> 25.2 µM (inactive)"}, {"measurement": "GI50", "setting": "786-0", "value": "> 23.9 µM (inactive)"}, {"measurement": "GI50", "setting": "COLO 205", "value": "> 31.1 µM (inactive)"}, {"measurement": "GI50", "setting": "SK-MEL-28", "value": "> 26.2 µM (inactive)"}, {"measurement": "GI50", "setting": "SW-620", "value": "> 28.3 µM (inactive)"}, {"measurement": "GI50", "setting": "HOP-62", "value": "> 46.6 µM (inactive)"}, {"measurement": "GI50", "setting": "ACHN", "value": "> 25.2 µM (inactive)"}, {"measurement": "GI50", "setting": "NCI-H460", "value": "> 52.5 µM (inactive)"}, {"measurement": "GI50", "setting": "A549", "value": "> 35.1 µM (inactive)"}, {"measurement": "GI50", "setting": "MDA-MB-231", "value": "> 29.4 µM (inactive)"}, {"measurement": "GI50", "setting": "UACC-62", "value": "> 42.2 µM (inactive)"}]}]}
